Measurements as given in patent EP0392384B1, “Targeted forms of methyltrithio antitumor agents” (AMERICAN CYANAMID COMPANY, priority 1989, dated 1990).

Columns and labels:
[1] = tested on: lymphocytic leukemia P388; assay: Lymphocytic Leukemia P388 Test; assay type: in vivo, BDF1 female mice; conditions: for T/Cx100 %: survival time treated/control
From the text: These have been reported in "Cancer Chemotherapy Reports", Part III, Vol. 3, No. 2 (1972), Geran, et. al. These protocols have established standardized screening tests which are generally followed in the field of testing for antitumor agents. Of these systems, lymphocytic leukemia P388, melanotic melanoma B16, L1210 leukemia and colon 26 adenocarcinoma are particularly significant to the present invention. These neoplasms are utilized for testing as transplantable tumors in mice.
The animals used were BDF1 female mice. There were 5 or 6 mice per test group. The tumor transplant was by intraperitoneal injection of 0.5 ml of dilute ascitic fluid containing 1 x 10^6 cells of lymphocytic leukemia P388 on day zero. The test compounds were administered intraperitoneally at a volume of 0.5 ml in sterile, pyrogen free saline on days 1, 5 and 9 (relative to tumor inoculation) at the indicated doses. The mice were weighed and survivors recorded on a regular basis for 30 days. The median survival time and the ratio of survival time for treated (T)/control (C) animals were calculated. Values of T/C greater than or equal to 125 are considered to reflect significant antitumor activity.

[2] = tested on: human colon cancer cell line LS174T; assay: In vivo antitumor test, human tumor xenograft LS174T; parameters: species or system athymic (nude) mice; conditions: no MoAb, iv, three injections started on day 8, day 21 post-implantation
[3] = tested on: human breast cancer cell line MX-1; assay: In vivo antitumor test, human tumor xenograft MX-1; parameters: species or system athymic (nude) mice; conditions: no MoAb, iv, three injections starting on day 2, day 42 post-implantation
[4] = tested on: human Burkitt lymphoma cell line Raji TC; assay: In vivo antitumor test, human tumor xenograft Raji; parameters: species or system athymic (nude) mice; conditions: no MoAb, iv, three injections starting on day 7, day 35 post-implantation
[5] = dose 0.0006 mg/kg intraperitoneally on days 1, 5 and 9
[6] = dose 0.00125 mg/kg intraperitoneally on days 1, 5 and 9
[7] = dose 0.0025 mg/kg intraperitoneally on days 1, 5 and 9
[8] = dose 0.005 mg/kg intraperitoneally on days 1, 5 and 9
[9] = dose 0.0003 mg/kg intraperitoneally on days 1, 5 and 9
[10] = dose 0.010 mg/kg intraperitoneally on days 1, 5 and 9
[11] = dose 0.020 mg/kg intraperitoneally on days 1, 5 and 9
[12] = dose 0.040 mg/kg intraperitoneally on days 1, 5 and 9
[13] = dose 0.080 mg/kg intraperitoneally on days 1, 5 and 9

## 3-Mercaptobutyryl hydrazide disulfide of LL-E33288γ1-I
[1]; [5]
  Median Survival: 19.5 days
  T/Cx100 %: 130%
[1]; [6]
  Median Survival: 21.0 days
  T/Cx100 %: 140%
[1]; [7]
  Median Survival: 23.0 days
  T/Cx100 %: 153%
[1]; [8]
  Median Survival: 28.5 days
  T/Cx100 %: 190%

## 3-Mercaptoisovaleryl hydrazide disulfide of LL-E33288q1-I
[1]; [9]
  Median Survival: 14.0 days
  T/Cx100 %: 133%
[1]; [5]
  Median Survival: 13.0 days
  T/Cx100 %: 124%
[1]; [6]
  Median Survival: 16.0 days
  T/Cx100 %: 152%
[1]; [7]
  Median Survival: 17.0 days
  T/Cx100 %: 162%
[1]; [8]
  Median Survival: 18.0 days
  T/Cx100 %: 171%
[1]; [10]
  Median Survival: 26.5 days
  T/Cx100 %: 252%

## 3-Mercaptopropionic Acid Disulfide of LL-E33288γ1^I
[1]; [7]
  T/Cx100 %: 125%
[1]; [8]
  T/Cx100 %: 145%

## 3-Mercaptopropionyl hydrazide disulfide of LL-E33288α2-I
[1]; [6]
  Median Survival: 18.5 days
  T/Cx100 %: 161%
[1]; [7]
  Median Survival: 18.5 days
  T/Cx100 %: 161%
[1]; [8]
  Median Survival: 21.0 days
  T/Cx100 %: 183%
[1]; [10]
  Median Survival: 26.5 days
  T/Cx100 %: 230%

## 3-Mercaptopropionyl hydrazide disulfide of N-acetyl LL-E33288γ1^I
[1]; [11]
  Median Survival: 15.0 days
  T/Cx100 %: 125%
[1]; [12]
  Median Survival: 18.0 days
  T/Cx100 %: 150%
[1]; [13]
  Median Survival: 21.0 days
  T/Cx100 %: 175%

## CC[C@]1(O)C[C@H]2CN(CCc3c([nH]c4ccccc34)[C@@](C(=O)OC)(c3cc4c(cc3OC)N(C=O)[C@H]3[C@@](O)(C(=O)OC)[C@H](OC(C)=O)[C@]5(CC)C=CCN6CC[C@]43[C@@H]65)C2)C1 [Vincristine]
[2]; Drug 20 mcg
  S/T: 6/6
  Tumor Size (T/C)%control: 23 %control

## Hydrazide of 3-mercaptopropionic acid disulfide of N-acetyl LL-E33288δ1^I [Hydrazide alone]
[3]; Drug 2.0 mcg
  S/T: 3/6
  Tumor Size (T/C)%control: 71 %control
[4]; Drug 1.0 mcg
  S/T: 6/6
  Tumor Size (T/C)%control: 517 %control

## N-acetyl LL-E33288δ1^I [reference compound]
[3]; Drug 1.0 mcg
  S/T: 2/6
  Tumor Size (T/C)%control: 46 %control
[4]; Drug 0.5 mcg
  S/T: 6/6
  Tumor Size (T/C)%control: 226 %control
[2]; Drug 2.0 mcg
  S/T: 1/6
  Tumor Size (T/C)%control: 32 %control
